Measured values as given in patent US12329733B2, “Acetyl-leucine or a pharmaceutically acceptable salt thereof for improved mobility and cognitive function” (INTRABIO LTD., priority 2016, dated 2025).

What was measured:
[1] = test system: rat model of an acute unilateral labyrinthectomy; conditions: by activation of the vestibulo-cerebellum and deactivation of the posterolateral thalamus; ref (4); cited from earlier work
[2] = test system: patients with postural imbalance / gait disorder; subjects; assay: clinical examination and patient/family reports of balance, gait, dizziness and falls; assay type: in vivo, human
Excerpt: In addition to the mobility assessments disclosed above, mobility in a subject having a mobility disorder associated with ageing may be tested, for example, using assessments of balance and/or through monitoring the number of falls experienced by the subject.

Row | SMILES | effect on postural compensation [1] | improvement during treatment ([2]; Example 2: person, balance disorder, Datscan borderline pathological) | improvement during treatment ([2]; Example 5: patient, progressive gait disorder)
1 | CC(=O)N[C@@H](CC(C)C)C(=O)O [N-acetyl-L-leucine] | significant effect | – | –
2 | N[C@@H](Cc1ccc(O)c(O)c1)C(=O)O [L-Dopa] | – | no improvement was observed | No improvement was observed
